Measured values from patent US8354419B2, “Benzimidazole analogues for the treatment or prevention of flavivirus infections” (Vertex Pharmaceuticals Incorporated, priority 2009, dated 2013).

What follows are molecules tested on HCV (Ib) RNA replication (assay: Cell-based luciferase reporter HCV (1b) RNA replication assay (replicon cell lines Huh-7 5.2 and ET)). Settings: Hepatitis C virus, Huh-7, 96 h, HCV 1b genotype replicon, luciferase readout, 4 days incubation; read-out: EC50_1b.
Parameters: species or system Hepatitis C virus
Method in brief: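 Compounds were tested at eleven concentrations in duplicate over 4 days at 37 °C, 5% CO2. The cells were luciferase-reporter HCV 1b replicon lines 5.2 (NS5A adaptive mutation) or ET (NS4B mutation). Luminescence of lysates was measured, and IC50s were derived by nonlinear curve fitting.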
`COC(=O)N[C@H](C(=O)N1CCC[C@H]1c1nc2c(F)cc(-c3ccc(-c4cc(F)c5nc([C@@H]6CCCN6C(=O)[C@@H](NC(=O)OC)C(C)C)[nH]c5c4)cc3)cc2[nH]1)C(C)C` [Compound 250] gave an EC50 of at most 5 nM.
`COC(=O)N[C@H](C(=O)N1C[C@@H](C)C[C@H]1c1nc2cc(C#CC#Cc3ccc4[nH]c([C@@H]5C[C@H](C)CN5C(=O)[C@@H](NC(=O)OC)C(C)C)nc4c3)ccc2[nH]1)C(C)C` [Compound 251] was tested, and the EC50 was at most 5 nM.
Work on `COC(=O)N[C@H](C(=O)N1C[C@@H](C)C[C@H]1c1nc2cc(-c3cc(C)c(-c4ccc5[nH]c([C@@H]6C[C@H](C)CN6C(=O)[C@@H](NC(=O)OC)C(C)C)nc5c4)cc3C)ccc2[nH]1)C(C)C` [Compound 252] yielded an EC50 of at most 5 nM.
`COC(=O)N[C@H](C(=O)N1C[C@@H](C)C[C@H]1c1nc2cc(-c3ccc(-c4ccc5[nH]c([C@@H]6C[C@H](C)CN6C(=O)[C@H](C(C)C)N(C)C(=O)OC)nc5c4)cc3)ccc2[nH]1)C(C)C` [Compound 253] gave an EC50 of at most 5 nM.
Molecule `COC(=O)N[C@H](C(=O)N1CCC[C@H]1c1nc2c(F)cc(-c3ccc(-c4cc(F)c5nc([C@@H]6CCCN6C(=O)[C@@H](NC(=O)OC)C(C)C)[nH]c5c4)c(C)c3)cc2[nH]1)C(C)C` [Compound 254] has an EC50 of at most 5 nM.
Molecule `COC(=O)N[C@H](C(=O)N1CCC[C@H]1c1nc2cc(-c3ccc(-c4ccc5nc([C@@H]6CCCN6C(=O)[C@@H](NC(=O)OC)C(C)C)n(C)c5c4)cc3)ccc2[nH]1)C(C)C` [Compound 255] has an EC50 of at most 5 nM.
In the case of `Cn1c(C2CCCN2C(=O)OC(C)(C)C)nc2ccc(-c3ccc(-c4ccc5[nH]c(C6CCCN6C(=O)OC(C)(C)C)nc5c4)cc3)cc21` (stereo not shown) [Compound 256], the EC50 is reported as 5 to 5000 nM.
`Cn1c([C@@H]2CCCN2C(=O)OC(C)(C)C)nc2ccc(-c3ccc(-c4ccc5nc([C@@H]6CCCN6C(=O)OC(C)(C)C)n(C)c5c4)cc3)cc21` [Compound 257] gave an EC50 of 5 to 5000 nM.
In the case of `COC(=O)N[C@H](C(=O)N1CCC[C@H]1c1nc2ccc(N3C[C@H](C)N(c4ccc5nc([C@@H]6CCCN6C(=O)[C@@H](NC(=O)OC)C(C)C)[nH]c5c4)C[C@H]3C)cc2[nH]1)C(C)C` [Compound 258], the EC50 is reported as at most 5 nM.
`COC(=O)N[C@H](C(=O)N1CCC[C@H]1c1nc2ccc(-c3ccc(-c4ccc5nc([C@@H]6CCCN6C(=O)[C@@H](NC(=O)OC)C(C)C)n(C)c5c4)cc3)cc2n1C)C(C)C` [Compound 259] gave an EC50 of at most 5 nM.
Work on `COC(=O)N(C)[C@H](C(=O)N1C[C@@H](C)C[C@H]1c1nc2cc(-c3cc4sc(-c5ccc6[nH]c([C@@H]7C[C@H](C)CN7C(=O)[C@H](C(C)C)N(C)C(=O)OC)nc6c5)cc4s3)ccc2[nH]1)C(C)C` [Compound 260] yielded an EC50 of at most 5 nM.
In the case of `COC(=O)N[C@H](C(=O)N1C[C@H](C)C[C@H]1c1nc2cc(-c3ccc(-c4ccc5[nH]c([C@@H]6C[C@@H](C)CN6C(=O)[C@@H](NC(=O)OC)C(C)C)nc5c4)c(C)c3)ccc2[nH]1)C(C)C` [Compound 261], the EC50 is reported as at most 5 nM.
`COC(=O)N[C@H](C(=O)N1C[C@@H](C)C[C@H]1c1nc2cc(-c3ccc(-c4ccc5[nH]c([C@@H]6C[C@H](C)CN6C(=O)[C@@H](Nc6ncccn6)C(C)C)nc5c4)cc3)ccc2[nH]1)C(C)C` [Compound 262] gave an EC50 of at most 5 nM.
`COC(=O)N[C@H](C(=O)N1C[C@@H](C)C[C@H]1c1nc2ccc(-c3ccc(-c4ccc(-c5ccc6nc([C@@H]7C[C@H](C)CN7C(=O)[C@@H](NC(=O)OC)C(C)C)[nH]c6c5)cc4)cc3)cc2[nH]1)C(C)C` [Compound 263] was tested, and the EC50 was at most 5 nM.
Molecule `COC(=O)N[C@H](C(=O)N1C[C@@H](C)C[C@H]1c1nc2cc(-c3cc4sc(-c5ccc6[nH]c([C@@H]7C[C@H](C)CN7C(=O)[C@H](C(C)C)N(C)C(=O)OC)nc6c5)cc4s3)ccc2[nH]1)C(C)C` [Compound 264] has an EC50 of at most 5 nM.
Work on `COC(=O)N[C@H](C(=O)N1C[C@@H](O)C[C@H]1c1nc2cc(-c3ccc(-c4ccc5[nH]c([C@@H]6C[C@H](O)CN6C(=O)[C@@H](NC(=O)OC)C(C)C)nc5c4)c(C)c3)ccc2[nH]1)C(C)C` [Compound 265] yielded an EC50 of at most 5 nM.
